Target: Jak2 (human Jak2 kinase domain, amino acids 808-1132) (Homo sapiens (Human), UniProt O60674)
Assay: Jak2 inhibition assay (Omnia kinase assay)
Assay type: biochemical
Conditions: read-out: Jak2 Enzyme (% inhibition at 1000 nM), Table 1; 1000 nM test compound

Sequence of Jak2 (human Jak2 kinase domain, amino acids 808-1132) (O60674 808-1132): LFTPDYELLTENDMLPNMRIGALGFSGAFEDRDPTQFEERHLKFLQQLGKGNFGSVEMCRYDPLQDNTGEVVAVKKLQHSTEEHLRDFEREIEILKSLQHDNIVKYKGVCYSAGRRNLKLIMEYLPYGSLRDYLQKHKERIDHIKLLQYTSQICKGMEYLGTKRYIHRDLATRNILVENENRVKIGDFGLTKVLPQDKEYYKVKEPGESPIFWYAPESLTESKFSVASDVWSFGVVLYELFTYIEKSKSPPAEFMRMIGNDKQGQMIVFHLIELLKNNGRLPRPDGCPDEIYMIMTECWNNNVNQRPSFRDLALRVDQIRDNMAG

| Structure (SMILES) | inhibition at 1 µM [%] |
| --- | --- |
| Cc1ncc(F)cc1[C@H]1CCCN1c1ccn2ncc(C(=O)NC3(CO)CC3)c2n1 [Example 193, (R)-5-(2-(5-fluoro-2-methylpyridin-3-yl)pyrrolidin-1-yl)-N-(1-(hydroxymethyl)cyclopropyl)-pyrazolo[1,5-a]pyrimidine-3-carboxamide] | 8.4 |
| O=C(O)C1CCN(C(=O)c2cnn3ccc(N4CCC[C@@H]4c4cc(F)ccc4F)nc23)CC1 [Example 11, (R)-1-(5-(2-(2,5-difluorophenyl)pyrrolidin-1-yl)pyrazolo[1,5-a]pyrimidine-3-carbonyl)piperidine-4-carboxylic Acid] | 10.1 |
| NC(=O)c1cnn2ccc(N3CCC[C@@H]3c3cc(F)ccc3C(F)(F)F)nc12 [Example 64, (R)-5-(2-(5-fluoro-2-(trifluoromethyl)phenyl)pyrrolidin-1-yl)pyrazolo[1,5-a]pyrimidine-3-carboxamide] | 60.3 |
| COc1ncc(F)cc1[C@H]1CCCN1c1ccn2ncc(C(=O)N3CC(O)C3)c2n1 [Example 139, (R)-(5-(2-(5-fluoro-2-methoxypyridin-3-yl)pyrrolidin-1-yl)pyrazolo[1,5-a]pyrimidin-3-yl)(3-hydroxyazetidin-1-yl)methanone] | -0.4 |
| CONC(=O)c1cnn2ccc(N3CCC[C@@H]3c3cc(F)cnc3OC)nc12 [Example 83, (R)-5-(2-(5-fluoro-2-methoxypyridin-3-yl)pyrrolidin-1-yl)-N-methoxypyrazolo[1,5-a]pyrimidine-3-carboxamide] | 26.3 |
| COc1ncc(F)cc1[C@H]1CCCN1c1ccn2ncc(C(=O)Nc3ccc(=O)[nH]c3)c2n1 [Example 161, (R)-5-(2-(5-fluoro-2-methoxypyridin-3-yl)pyrrolidin-1-yl)-N-(6-oxo-1,6-dihydropyridin-3-yl)pyrazolo[1,5-a]pyrimidine-3-carboxamide] | 27.4 |
| C[C@@H](O)CNC(=O)c1cnn2ccc(N3CCCC3c3cc(F)ccc3F)nc12 (stereo in doubt) [Example 167, 5-((R)-2-(2,5-difluorophenyl)pyrrolidin-1-yl)-N-(2-hydroxypropyl)pyrazolo[1,5-a]pyrimidine-3-carboxamide] | 9.8 |
| CONC(=O)c1cnn2ccc(N3CCC[C@@H]3c3cccc(F)c3)nc12 [Example 75] | 15.1 |
| NS(=O)(=O)N1CCC(NC(=O)c2cnn3ccc(N4CCC[C@@H]4c4cc(F)ccc4F)nc23)CC1 [Example 45, (R)-5-(2-(2,5-difluorophenyl)pyrrolidin-1-yl)-N-(1-sulfamoylpiperidin-4-yl)pyrazolo[1,5-a]pyrimidine-3-carboxamide] | 84 |
| NCCCNC(=O)c1cnn2ccc(N3CCC[C@@H]3c3cc(F)c[nH]c3=O)nc12 [Example 142, (R)—N-(3-aminopropyl)-5-(2-(5-fluoro-2-oxo-1,2-dihydropyridin-3-yl)pyrrolidin-1-yl)pyrazolo[1,5-a]pyrimidine-3-carboxamide] | -0.9 |
| NS(=O)(=O)CCNC(=O)c1cnn2ccc(N3CCC[C@@H]3c3cc(F)ccc3F)nc12 [Example 47, (R)-5-(2-(2,5-difluorophenyl)pyrrolidin-1-yl)-N-(2-sulfamoylethyl)pyrazolo[1,5-a]pyrimidine-3-carboxamide] | 37.3 |
| O=C(NC[C@H](O)CO)c1cnn2ccc(N3CCC[C@@H]3c3cc(F)ccc3C(F)(F)F)nc12 [Example 62, N—((S)-2,3-dihydroxypropyl)-5-((R)-2-(5-fluoro-2-(trifluoromethyl)phenyl)pyrrolidin-1-yl)pyrazolo[1,5-a]pyrimidine-3-carboxamide] | 35.2 |
| CC(C)(O)CNC(=O)c1cnn2ccc(N3CCC[C@@H]3c3cc(F)ccc3F)nc12 [Example 17, (R)-5-(2-(2,5-difluorophenyl)pyrrolidin-1-yl)-N-(2-hydroxy-2-methylpropyl)pyrazolo[1,5-a]pyrimidine-3-carboxamide] | 5.6 |
| C[C@H](NC(=O)c1cnn2ccc(N3C[C@@H](O)C[C@@H]3c3cccc(F)c3)nc12)C(F)(F)F [Example 216, 5-((2R,4S)-2-(3-fluorophenyl)-4-hydroxypyrrolidin-1-yl)-N—((S)-1,1,1-trifluoropropan-2-yl)pyrazolo[1,5-a]pyrimidine-3-carboxamide] | 54 |
| COc1ncc(F)cc1[C@H]1CCCN1c1ccn2ncc(C(=O)NC[C@H](C)O)c2n1 [Example 156, 5-((R)-2-(5-fluoro-2-methoxypyridin-3-y1)pyrrolidin-1-yl)-N-((S)-2-hydroxypropyl)pyrazolo[1,5-a]pyrimidine-3-carboxamide] | 16.1 |
| O=C(NOCC1CC1)c1cnn2ccc(N3CCC[C@@H]3c3cc(F)ccc3F)nc12 [Example 66, (R)—N-(cyclopropylmethoxy)-5-(2-(2,5-difluorophenyl)pyrrolidin-1-yl)pyrazolo[1,5-a]pyrimidine-3-carboxamide] | 24.7 |
| CC(C)(CF)NC(=O)c1cnn2ccc(N3CCC[C@@H]3c3cc(F)ccc3F)nc12 [Example 40, (R)-5-(2-(2,5-difluorophenyl)pyrrolidin-1-yl)-N-(1-fluoro-2-methylpropan-2-yl)pyrazolo[1,5-a]pyrimidine-3-carboxamide] | 41.4 |
| COc1ncc(F)cc1[C@H]1CCCN1c1ccn2ncc(C(=O)NC[C@@H](C)O)c2n1 [Example 157, 5-((R)-2-(5-fluoro-2-methoxypyridin-3-yl)pyrrolidin-1-yl)-N-((R)-2-hydroxypropyl)pyrazolo[1,5-a]pyrimidine-3-carboxamide] | 9.6 |
| O=C(NCCn1ccnc1)c1cnn2ccc(N3CCC[C@@H]3c3cc(F)ccc3F)nc12 [Example 28, (R)—N-(2-(1H-imidazol-1-yl)ethyl)-5-(2-(2,5-difluorophenyl)pyrrolidin-1-yl)pyrazolo[1,5-a]pyrimidine-3-carboxamide] | 5 |
| O=C(NOC[C@@H](O)CO)c1cnn2ccc(N3CCC[C@@H]3c3cc(F)ccc3F)nc12 [Example 88, 5-((R)-2-(2,5-difluorophenyl)pyrrolidin-1-yl)-N—((S)-2,3-dihydroxypropoxy)pyrazolo[1,5-a]pyrimidine-3-carboxamide] | 15.1 |
| CN1CCN(CCNC(=O)c2cnn3ccc(N4CCC[C@@H]4c4cc(F)ccc4F)nc23)CC1 [Example 171, 5-((R)-2-(2,5-difluorophenyl)pyrrolidin-1-yl)-N-(2-(4-methylpiperazin-1-yl)ethyl)pyrazolo[1,5-a]pyrimidine-3-carboxamide] | 7.8 |
| COc1ccc(F)cc1[C@H]1CCCN1c1ccn2ncc(C(=O)NC[C@H](O)CO)c2n1 [Example 55, N—((S)-2,3-dihydroxypropyl)-5-((R)-2-(5-fluoro-2-methoxyphenyl)pyrrolidin-1-yl)pyrazolo[1,5-a]pyrimidine-3-carboxamide] | 24.1 |

Results, then the compound that gave them:

| inhibition at 1 µM [%] | Structure (SMILES) |
| --- | --- |
| 6 | CC(C)(C#N)NC(=O)c1cnn2ccc(N3CCC[C@@H]3c3cncc(F)c3)nc12 [Example 69, (R)—N-(2-cyanopropan-2-yl)-5-(2-(5-fluoropyridin-3-yl)pyrrolidin-1-yl)pyrazolo[1,5-a]pyrimidine-3-carboxamide] |
| 41.4 | O=C(NC1CC1)c1cnn2ccc(N3CCC[C@@H]3c3cc(F)ccc3F)nc12 [Example 13, (R)—N-cyclopropyl-5-(2-(2,5-difluorophenyl)pyrrolidin-1-yl)pyrazolo[1,5-a]pyrimidine-3-carboxamide] |
| -0.5 | C[C@@H](O)CNC(=O)c1cnn2ccc(N3CCC[C@@H]3c3cncc(F)c3)nc12 [Example 110, 5-((R)-2-(5-fluoropyridin-3-yl)pyrrolidin-1-yl)-N-((R)-2-hydroxypropyl)pyrazolo[1,5-a]pyrimidine-3-carboxamide] |
| 28.3 | CC(C)NC(=O)c1cnn2ccc(N3[C@H](CO)CC[C@@H]3c3cncc(F)c3)nc12 [Example 215, 5-((2R,5S)-2-(5-fluoropyridin-3-yl)-5-(hydroxymethyl)pyrrolidin-1-yl)-N-isopropylpyrazolo[1,5-a]pyrimidine-3-carboxamide] |
| 6.2 | CC(C)(CF)NC(=O)c1cnn2ccc(N3CCC[C@@H]3c3cncc(F)c3)nc12 [Example 71, (R)—N-(1-fluoro-2-methylpropan-2-yl)-5-(2-(5-fluoropyridin-3-yl)pyrrolidin-1-yl)pyrazolo[1,5-a]pyrimidine-3-carboxamide] |
| 4.8 | O=C(N[C@@H]1CCCC[C@H]1O)c1cnn2ccc(N3CCC[C@@H]3c3cncc(F)c3)nc12 [Example 136, 5-((R)-2-(5-fluoropyridin-3-yl)pyrrolidin-1-yl)-N-((1R,2R)-2-hydroxycyclohexyl)pyrazolo[1,5-a]pyrimidine-3-carboxamide] |
| -1 | O=C(N[C@@H]1CCC[C@@H]1O)c1cnn2ccc(N3CCC[C@@H]3c3cncc(F)c3)nc12 [Example 135, 5-((R)-2-(5-fluoropyridin-3-yl)pyrrolidin-1-y1)-N-((1R,2S)-2-hydroxycyclopentyl)pyrazolo[1,5-a]pyrimidine-3-carboxainide] |
| 78.9 | O=C(NC1CCOCC1)c1cnn2ccc(N3CCC[C@@H]3c3cc(F)ccc3F)nc12 [Example 20, (R)-5-(2-(2,5-difluorophenyl)pyrrolidin-1-yl)-N-(tetrahydro-2H-pyran-4-yl)pyrazolo[1,5-a]pyrimidine-3-carboxamide] |
| 51.9 | O=C(N[C@H]1CC[C@H](O)C1)c1cnn2ccc(N3CCC[C@@H]3c3cc(F)ccc3F)nc12 [Example 169, 5-((R)-2-(2,5-difluorophenyl)pyrrolidin-1-yl)-N-((1S,3S)-3-hydroxycyclopentyl)pyrazolo[1,5-a]pyrimidine-3-carboxamide] |
| 5.3 | Cn1cc(F)cc([C@H]2CCCN2c2ccn3ncc(C(=O)N[C@@H]4CCCC[C@H]4O)c3n2)c1=O [Example 234, 5-((R)-2-(5-fluoro-1-methyl-2-oxo-1,2-dihydropyridin-3-yl)pyrrolidin-1-yl)-N-((1R,2R)-2-hydroxycyclohexyl)pyrazolo[1,5-a]pyrimidine-3-carboxamide] |
| 21.2 | O=C(NC1CC1)c1cnn2ccc(N3CCC[C@@H]3c3cc(F)cc(OCC(O)CO)c3)nc12 (stereo partly drawn) [Example 208, N-cyclopropyl-5-((2R)-2-(3-(2,3-dihydroxypropoxy)-5-fluorophenyl)pyrrolidin-1-yl)pyrazolo[1,5-a]pyrimidine-3-carboxamide] |
